Reference: article PMC4684500, “Diversity, Antimicrobial Action and Structure-Activity Relationship of Buffalo Cathelicidins” (PLoS ONE, 2015)
Where no end group is shown, it is not given here.

What was measured:
S. typhimurium [1] = assay: LIVE/DEAD BacLight membrane permeability assay; format: cell-based, Salmonella typhimurium; conditions: peptide 200μM, SYTO9/PI
Protocol: (§1) The damage to bacterial membrane following addition of peptide was assessed by BacLight kit (Life Technologies, CA, USA). Aliquots of S. aureus, S. enterica and P. aeruginosa cultures from exponential (shaking incubation for 2, 3, and 4 h, respectively) and stationary phases (overnight incubation) were harvested by centrifugation (5000 g for 10 min) and diluted in PBS. Peptides (200μM) were added to bacterial suspension and 50 μl aliquots were removed immediately or after 1 h incubation. Equi-volume mixtures of SYTO9/PI (3 μl/ml bacterial suspension) were added to these aliquots and fluorescent micrographs of stained bacteria were taken at 1000×magnification in a microscope (Olympus BX51 fitted with DP71 camera) with a fluorescence illuminator system.

PBMCs = assay: In vitro cytokine response, qRT-PCR; format: cell-based, buffalo; conditions: peptide 500 nM, 1 h, qRT-PCR vs PBS control, p<0.05
Protocol: For measurement of in vitro cytokine response, PBMCs were isolated from blood and maintained in serum-free RPMI-1640 (Sigma Aldrich, MO, USA) medium. Cells were exposed to peptides (500 nM), muramyl-di-peptide (Invivogen, San Diego, CA) [MDP (10 μg/ml) as positive control] and PBS (negative control). Cells were incubated for 1 h and relative mRNA abundance of cytokines was quantified by qRT-PCR using RPS-18 gene as housekeeping control. Total RNA, extracted by TRIzol (Ambion, CA, USA) method was used for cDNA preparation (Superscript III cDNA synthesis kit; Invitrogen, CA, USA).qRT-PCR reactions were performed in a Light Cycler® 480 II machine (Roche Diagnostics, USA). Each reaction consisted of 2 μl cDNA template, 5 μl of 2× SYBR® Green PCR Master Mix (Thermo Scientific, PA, USA), 0.25 μl each of forward and reverse primers (10 pmol) and nuclease free water for a final volume of 10 μl. Each sample was run in duplicate.

[2] = system: Stahylococcus aureus NCDC-0111; format: cell-based, Staphylococcus aureus; conditions: 24 h
Protocol: (§2) The buCATHL4 peptides were synthesized by G L Biochem (Shanghai, China). Purity and molecular mass of the peptides were provided by the vendors using HPLC and mass spectrometry, respectively. The purity of all peptides were >98%. Minimum inhibitory concentrations (MIC) of buCATHL4s against the pathogenic microorganisms were tested by broth micro-dilution technique. Briefly, bacteria were grown in Mueller Hinton broth (Sigma-Aldrich, MO, USA) at 37°C. The OD of early-log phase cultures were adjusted to 0.08–0.1 and further diluted (1:200) to keep inoculums concentration nearly 10^6 colony forming units (CFU)/ml. Diluted peptides (10 μl) were mixed with equi-volume solution A (0.02% acetic acid containing 0.4% BSA) and were serially diluted in the solution B (0.01% acetic acid containing 0.2% BSA). Bacterial inoculums (90 μl) were mixed with serially diluted peptides and incubated at 37°C for 24 h without shaking. […] All peptides were tested in triplicate. For time kill kinetics experiments, peptides (1×, 2× and 4× MIC) were added to bacterial suspension of Staphylococcus aureus, Salmonella enterica and Pseudomonas aeruginosa, as described in the MIC determination method. Aliquots of representative wells were diluted and plated on Muller Hinton agar plates at 0, 1, 4, 12 and 24 h intervals. Water with 0.01% acetic acid and ampicillin (100 mg/ml) were taken as […] controls, respectively. The results were represented as log CFU/ml.

[3] = system: Stahylococcus aureus ATCC-29213; format: cell-based, Staphylococcus aureus; conditions: ATCC-29213, 24 h
Protocol: as §2

S. aureus [4] = assay: Time kill kinetics; format: cell-based, Staphylococcus aureus
Protocol: as §2

P. aeruginosa biofilm = assay: Biofilm assay (crystal violet); format: cell-based, Pseudomonas aeruginosa; conditions: peptide at 1× and 2× MIC, 24 h 37°C, crystal violet A570
Protocol: (§3) The efficacy of peptides against biofilms of S. aureus and P. aeruginosa was determined using previously described method. Overnight grown bacterial cultures were diluted (1:100) and 200 μl suspensions were mixed with each peptide (1× and 2× MIC) in a 96 well plate and incubated for 24 h at 37°C. Biofilms were fixed with paraformadehyde solution, cultures were decanted and 0.1% crystal violet solution was added to stain the film. The plate was rinsed thrice with water and air-dried. The stain was dissolved by 100 μl of acetic acid (30%) and absorbance was measured at 570 nm. The experiment was performed in triplicate, 30% acetic acid was taken as a blank.

S. aureus [5] = assay: LIVE/DEAD BacLight membrane permeability assay; format: cell-based, Staphylococcus aureus; conditions: peptide 200μM, log phase culture, SYTO9/PI
Protocol: as §1

[6] = system: Escherichia coli MTCC-0723; format: cell-based; conditions: MTCC-0723, 24 h
Protocol: as §2

[7] = system: Pseudomonas aeruginosa NCDC-0105; format: cell-based; conditions: NCDC-0105, 24 h
Protocol: as §2

[8] = system: Listeria monocytogenes ATCC-19111; format: cell-based; conditions: ATCC-19111, 24 h
Protocol: as §2

[9] = system: Pseudomonas aeruginosa ATCC-27853; format: cell-based; conditions: ATCC-27853, 24 h
Protocol: as §2

[10] = system: Bacillus cereus NCDC-0240; format: cell-based; conditions: NCDC-0240, 24 h
Protocol: as §2

[11] = system: Salmonella typhimurium ATCC-14028; format: cell-based; conditions: ATCC-14028, 24 h
Protocol: as §2

[12] = system: Acinetobacter johnsonii NCDC-0072; format: cell-based; conditions: 24 h
Protocol: as §2

S. aureus [13] = assay: Scanning and transmission electron microscopy; format: cell-based, Staphylococcus aureus; conditions: lower concentrations (≤2× MIC)
Protocol: (§4) Early log phase cultures of S. aureus and S. enterica were subjected to different concentration of peptides and incubated at 37°C. The bacterial pellets after centrifugation (5000 g for 10 min) were washed with 0.1M cacodylate buffer (pH 7.2) and were fixed in 2.5% gluteraldehyde at 4°C for 2 h. For scanning electron microscopy, bacteria were dehydrated using gradient series of ethanol wash (30, 50, 70, 90 and absolute). The samples were air-dried overnight, gold coated (Eiko IB-3 ion coater), and viewed in a Zeiss EVO 18 Special Edition SEM. For transmission electron microscopy, fixed samples were adhered to hexagonal PELCO® Grids (Ted Pella, Inc. USA), washed once with Mili-Q water and stained with uranyl acetate (2%) buffer. Samples were viewed in a JEM 1011 (Jeol, Japan) microscope.

S. aureus biofilm = assay: Biofilm assay (crystal violet); format: cell-based, Staphylococcus aureus; conditions: peptide at 1× and 2× MIC, 24 h 37°C, crystal violet A570
Protocol: as §3

S. typhimurium [14] = assay: Scanning and transmission electron microscopy; format: cell-based, Salmonella typhimurium
Protocol: as §4

[15] = system: S. aureus, S. typhimurium and P. aeruginosa; assay: Time kill kinetics, three pathogens; format: cell-based; conditions: peptide at 4× MIC
Protocol: as §2

With RIRFPWPWRWPWWRRVRG [buCATHL4C] the “Clumping (agglutination) of S. typhimurium after peptide addition” value (S. typhimurium [1]; log phase culture) was “immediate clumping”, the “Membrane permeability of latent (stationary phase) S. typhimurium” value (S. typhimurium [1]; stationary phase culture, proportion of cells affected comparatively less) was “affected membrane permeability” and the “TNF-α mRNA response” value (PBMCs) was “significantly higher”. For the same sequence, the MIC [2] was 0.4 µM, the MIC [3] was 0.2 µM and the “Growth inhibition of S. aureus in time kill kinetics” value (S. aureus [4]; peptide at 2× MIC, plating at 0, 1, 4, 12, 24 h) was “complete growth inhibition”. For the same sequence, the “Time to complete elimination of S. aureus” value (S. aureus [4]; peptide at 4× MIC, time kill kinetics) was 4 h, the “Reduction in biofilm growth of P. aeruginosa” value (P. aeruginosa biofilm) was “substantial” and the “Clumping (agglutination) of S. aureus after peptide addition” value (S. aureus [5]) was “immediate clumping”. It also gave an MIC [6] of 12.5 µM, an MIC [7] of 6 µM and an MIC [8] of 1.5 µM. It also gave an MIC [9] of 0.2 µM, an MIC [10] of 0.8 µM and an MIC [11] of 3 µM. For the same sequence, the MIC [12] was 6 µM, the “Morphological change of S. aureus cells (SEM/TEM)” value (S. aureus [13]) was “swelling and blebing” and the “Reduction in biofilm growth of S. aureus” value (S. aureus biofilm) was “substantial”. The “Formation of pore like structures over the membrane (SEM/TEM)” value (S. typhimurium [14]; Fig 5H and 5L, S. typhimurium, with extensive wrinkling of membrane) was “Formation of pore like structures”, the “Formation of negative curvature on membrane (SEM/TEM)” value (S. typhimurium [14]; more evident with S. typhimurium) was “Formation of negative curvature” and the “Killing rate compared with indolicidin and ampicillin” value [15] was “comparatively better killing rate”.
